Assay results from article PMC10619477 (RSC Advances, 2023).
Marks after values point to notes of the source that are not given here.

Experiments:
[1] = ABTS radical cationic decolorization assay; type: biochemical; conditions: read-out: ABTS (IC50); concentration that inhibits 50% of free radicals, mean ± SEM
[2] = DPPH radical scavenging assay; type: biochemical; conditions: for IC50: read-out: DPPH (IC50), mean ± SEM, three determinations; for DPPH inhibiting rate: in the presence of 0.5 mM compounds
[3] = in vitro; conditions: PAMPA
[4] = from PAMPA-BBB Pe
[5] = system: SH-SY5Y cells; conditions: MTT; for Cytotoxicity on SH-SY5Y cells (in words): 0–80 μM
[6] = system: MMP in H2O2-incubated SY5Y cells; assay: Mitochondrial membrane potential assay; conditions: 10 μM, 100 μM H2O2 24 h, JC-1
[7] = system: intracellular ROS in H2O2-injured SY5Y cells; assay: Intracellular ROS levels; type: cell-based, Human; conditions: 0.1, 1 or 10 μM, 100 μM H2O2 24 h, DCFH-DA
[8] = system: SH-SY5Y cells exposed to 100 μM H2O2; assay: Protection of SH-SY5Y cells from H2O2-induced oxidative damage; type: cell-based, Human
[9] = system: intracellular GSH in H2O2-injured SY5Y cells; assay: Total glutathione; type: cell-based, Human; conditions: pretreatment with 10 μM, 100 μM H2O2

Compound	IC50 [1] [µM]	IC50 [2] [µM]	Papp at 16 h, 100 mg mL^−1 [3] [×10⁻⁶ cm/s]	Prediction (penetration into CNS) [4]	other results
2-(3,4-Dimethoxyphenyl)-N-octylacetamide [Compound 3d]	24.3 ± 3.62	67.6 ± 4.74			
CCCCCCNC(=O)Cc1ccc(OC)c(OC)c1 [Compound 3g, 2-(3,4-Dimethoxyphenyl)-N-hexylacetamide]			11.2 ± 0.68	CNS+ (CNS+ is predicted as high BBB permeation with Pe (×10^−6 cm s^−1) > 4.33)	DPPH radical scavenging activity (in words) [2]: little radical scavenging activities; DPPH inhibiting rate [2]: 12.76 ± 2.54% ^c
Cn1c(=O)c2c(ncn2C)n(C)c1=O [Caffeine, reference compound]			0.79 ± 0.1		
CCCCCCC(=O)NCc1ccc(OC)c(OC)c1 [Compound 3e, N-(3,4-Dimethoxybenzyl)heptanamide]			10.8 ± 1.03	CNS+ (CNS+ is predicted as high BBB permeation with Pe (×10^−6 cm s^−1) > 4.33)	DPPH radical scavenging activity (in words) [2]: little radical scavenging activities; DPPH inhibiting rate [2]: 27.33 ± 2.88% ^c
CCCCCCCCNC(=O)Cc1ccc(O)c(O)c1 [Compound 3q, 2-(3,4-Dihydroxyphenyl)-N-octylacetamide]	21.6 ± 3.69	4.14 ± 1.09	6.54 ± 0.81	CNS+ (CNS+ is predicted as high BBB permeation with Pe (×10^−6 cm s^−1) > 4.33)	Cytotoxicity on SH-SY5Y cells (in words) [5]: strong growth inhibition
CCCCCCCCC(=O)NCc1ccc(O)c(O)c1 [Compound 3n, N-(3,4-Dihydroxybenzyl) nonanamide]	22.7 ± 2.34	5.91 ± 0.77	10.1 ± 0.34	CNS+ (CNS+ is predicted as high BBB permeation with Pe (×10^−6 cm s^−1) > 4.33)	Cytotoxicity on SH-SY5Y cells (in words) [5]: strong growth inhibition
COc1cc(CNC(=O)CCCC/C=C/C(C)C)ccc1O [Compound 3a, capsaicin, reference compound]	16.9 ± 1.64	52.1 ± 3.21			
COc1cc(CNC(=O)CCCCCCC(C)C)ccc1O [Compound 3b, Dihydrocapsaicin]	11.3 ± 1.55	50.9 ± 4.08	5.96 ± 0.78		
C[C@]12CC[C@@H]3c4ccc(O)cc4CC[C@H]3[C@@H]1CC[C@@H]2O [Estradiol, reference compound]			13.2 ± 0.51		
O=c1c(O)c(-c2ccc(O)c(O)c2)oc2cc(O)cc(O)c12 [Quercetin, reference compound]	13.8 ± 2.87	8.7 ± 1.75			
CC(C)CCCCCCC(=O)NCc1ccc(O)c(O)c1 [Compound 3c, N-(3,4-Dihydroxybenzyl)-8-methylnonanamide]	16.8 ± 2.1	7.33 ± 0.98	8.45 ± 0.57	CNS+ (CNS+ is predicted as high BBB permeation with Pe (×10^−6 cm s^−1) > 4.33)	Cytotoxicity on SH-SY5Y cells (in words) [5]: strong growth inhibition
CCCCCCCC(=O)NCc1ccc(O)c(O)c1 [Compound 3k, N-(3,4-Dihydroxybenzyl)octanamide]	10.6 ± 1.28	5.06 ± 1.34	9.23 ± 0.57	CNS+ (CNS+ is predicted as high BBB permeation with Pe (×10^−6 cm s^−1) > 4.33)	H2O2-induced reduction of MMP (in words) [6]: blocked significantly; intracellular ROS fluorescence intensity (in words) [7]: decreased gradually; Cytotoxicity on SH-SY5Y cells (in words) [5]: little toxicity; cell viability under H2O2 (in words) ([8]; 0.1, 1 or 10 μM pretreatment, 100 μM H2O2): increased dose-dependently; viability at 10 µM ([8]; Homo sapiens, SH-SY5Y, read-out: cell viability): 90 ± 5.5%; H2O2-induced decrease of intracellular GSH (in words) [9]: blocked
CCCCCCNC(=O)Cc1ccc(O)c(O)c1 [Compound 3h, 2-(3,4-Dihydroxyphenyl)-N-hexylacetamide]	18.6 ± 3.03	4.49 ± 0.74	7.68 ± 0.47	CNS+ (CNS+ is predicted as high BBB permeation with Pe (×10^−6 cm s^−1) > 4.33)	
CCCCCCCC(=O)NCc1ccc(O)c(OC)c1 [Compound 3i, N-(4-Hydroxy-3-methoxybenzyl) octanamide]	13.6 ± 2.9	27.9 ± 4.55			
CCCCCCCCC(=O)NCc1ccc(OC)c(OC)c1 [Compound 3m, N-(3,4-Dimethoxybenzyl)nonanamide]			10.6 ± 0.38	CNS+ (CNS+ is predicted as high BBB permeation with Pe (×10^−6 cm s^−1) > 4.33)	DPPH radical scavenging activity (in words) [2]: little radical scavenging activities; DPPH inhibiting rate [2]: 18.56 ± 2.33% ^c
CCCCCCCCNC(=O)Cc1ccc(OC)c(OC)c1 [Compound 3p, 2-(3,4-Dimethoxyphenyl)-N-octylacetamide]					DPPH radical scavenging activity (in words) [2]: little radical scavenging activities; DPPH inhibiting rate [2]: 30.48 ± 3.44% ^c
OO [Compound H2O2, H2O2, reference compound]					inhibition in SH-SY5Y cells ([5]; H2O2 at 100 μM): 38.1 ± 7.6%; effect on SH-SY5Y cell viability (in words) ([5]; H2O2 at 25 and 50 μM): no apparent inhibitory or promotive effects; cell viability of H2O2-treated SY5Y cells ([8]; 100 μM H2O2 alone, compared with control (100%)): 63.3 ± 4.5%
CCCCCCCCC(=O)NCc1ccc(O)c(OC)c1 [Compound 3l, N-(4-Hydroxy-3-methoxybenzyl)nonanamide]	44.2 ± 4.65	27.2 ± 3.47			
CCCCCCCC(=O)NCc1ccc(OC)c(OC)c1 [Compound 3j, N-(3,4-Dimethoxybenzyl)octanamide]					DPPH radical scavenging activity (in words) [2]: little radical scavenging activities; DPPH inhibiting rate [2]: 22.72 ± 5.47% ^c
CCCCCCCCNC(=O)Cc1ccc(O)c(OC)c1 [Compound 3o, 2-(4-Hydroxy-3-methoxyphenyl)-N-octylacetamide]	30.9 ± 2.79	185 ± 9.86			
CCCCCCNC(=O)Cc1ccc(O)c(OC)c1 [Compound 3f, N-Hexyl-2-(4-hydroxy-3-methoxyphenyl)acetamide]	13.1 ± 1.47	139 ± 6.89	6.24 ± 0.98	CNS+ (CNS+ is predicted as high BBB permeation with Pe (×10^−6 cm s^−1) > 4.33)	
